Results taken from ChEMBL document CHEMBL2157908, “Formylated polyamines as peptidomimetics” (Bioorg Med Chem Lett, 2012).
pIC50, pKi: −log10 of the molar value. Active and inactive are the calls of the source. No cut-off for these calls is given here.

How the values were obtained:
[1] = Half life in human serum; type: ADME, cell-free
Mu-type opioid receptor [2] = target: T1, Mu-type opioid receptor (Homo sapiens, UniProt P35372); assay: Displacement of [3H]DAMGO from human recombinant mu-opioid receptor expressed in CHO cells after 60 mins by liquid scintillation assay; type: cell-based
T1 sequence (P35372 whole entry): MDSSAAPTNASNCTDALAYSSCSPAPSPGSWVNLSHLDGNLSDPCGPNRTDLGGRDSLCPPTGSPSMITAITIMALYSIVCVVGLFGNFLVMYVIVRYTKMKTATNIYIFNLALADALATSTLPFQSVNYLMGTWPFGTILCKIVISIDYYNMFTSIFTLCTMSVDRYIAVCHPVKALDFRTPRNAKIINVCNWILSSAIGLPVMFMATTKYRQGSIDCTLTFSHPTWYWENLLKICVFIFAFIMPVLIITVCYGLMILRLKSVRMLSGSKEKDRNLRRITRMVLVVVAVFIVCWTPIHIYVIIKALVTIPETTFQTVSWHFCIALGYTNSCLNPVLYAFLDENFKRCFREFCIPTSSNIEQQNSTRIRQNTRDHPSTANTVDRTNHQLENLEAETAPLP

Mu-type opioid receptor [3] = target: T1, Mu-type opioid receptor; assay: Agonist activity at human recombinant mu-opioid receptor expressed in CHO cells after 60 mins by [35S]GTPgammaS binding assay; type: functional, cell-based

## CC(C)C[C@H](CN(C=O)[C@H](Cc1ccccc1)CN(C=O)CCN(C=O)CCN(C=O)[C@@H](CN)Cc1ccc(O)cc1)NS(C)(=O)=O
[1]
  half-life: 41 h
Mu-type opioid receptor [2]
  pIC50: 5.49
  pKi: 6.40
Mu-type opioid receptor [3]
  Activity: inactive
